Measured values published in US9133134B2, “Inhibitors of bruton's tyrosine kinase” (Pharmacyclics, Inc., priority 2012, dated 2015).

Target: human BTK (Homo sapiens (Human), UniProt Q06187)
Assay: Btk enzymatic kinase assay (electrophoretic mobility shift assay)
Format: biochemical
Details: recombinant full-length human BTK 1 nM, ATP 16 μM, peptide substrate 1 μM, one hour incubation
Protocol: Kinase activity is measured in vitro using electrophoretic mobility shift assay. The kinase reactions are assembled in a total volume of 25 μL in 384 well plates. […] The reaction is incubated for one hour and is quenched by the addition of 45 μL of termination buffer (100 mM HEPES, pH7.5, 0.01% Triton X-100, 30 mM EDTA). The terminated reactions are analyzed using 12 channel LabChip® 3000 microfluidic detection instrument (Caliper Life Sciences). […] Change in the relative fluorescence intensity of the substrate and product peaks is the parameter measured, reflecting enzyme activity. In the presence of an inhibitor, the ratio between product and substrate is altered: the signal of the product decreases, while the signal of the substrate increases.
Activity in each sample is determined as the product to sum ratio (PSR): P/(S+P), where P is the peak height of the product peptide and S is the peak height of the substrate peptide. For each compound, enzyme activity is measured at various concentrations (12 concentrations of compound spaced by 3× dilution intervals). […] Percent inhibition (Pinh) is determined using following equation: […]
The IC50 values of inhibitors are determined by 4 parameter sigmoidal dose-response model fitting of the inhibition curves (Pinh versus inhibitor concentration) using XLfit 4 software.

human BTK, sequence (Q06187 whole entry): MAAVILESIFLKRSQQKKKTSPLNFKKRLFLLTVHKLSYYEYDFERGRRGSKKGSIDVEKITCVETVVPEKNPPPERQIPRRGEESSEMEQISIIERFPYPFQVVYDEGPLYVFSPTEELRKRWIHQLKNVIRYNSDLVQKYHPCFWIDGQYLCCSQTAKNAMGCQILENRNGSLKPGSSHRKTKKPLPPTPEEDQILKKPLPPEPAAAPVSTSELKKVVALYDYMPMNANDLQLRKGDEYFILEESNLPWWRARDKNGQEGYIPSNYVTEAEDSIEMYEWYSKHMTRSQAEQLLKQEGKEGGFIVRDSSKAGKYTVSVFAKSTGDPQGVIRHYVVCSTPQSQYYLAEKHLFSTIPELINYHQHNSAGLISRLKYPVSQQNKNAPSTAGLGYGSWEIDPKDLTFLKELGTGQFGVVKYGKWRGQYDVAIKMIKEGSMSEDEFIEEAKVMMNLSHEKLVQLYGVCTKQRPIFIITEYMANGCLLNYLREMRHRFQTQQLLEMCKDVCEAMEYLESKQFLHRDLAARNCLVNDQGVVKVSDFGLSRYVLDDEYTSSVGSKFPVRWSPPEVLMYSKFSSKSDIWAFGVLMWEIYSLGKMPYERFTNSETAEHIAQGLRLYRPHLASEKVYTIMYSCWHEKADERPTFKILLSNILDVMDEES

IC50: < 500 nM
SMILES: COCCOc1ccc(Nc2ncc(F)c(Nc3cccc(NC(=O)C(O)CO)c3)n2)cc1 (stereo not shown) [Compound 4, N-(3-(5-fluoro-2-(4-(2-methoxyethoxy)phenylamino)pyrimidin-4-ylamino)phenyl)-2,3-dihydroxypropanamide]
